In one assay the test system is Human RSV-A (“Long” strain). Briefly: RSV in vitro cytoprotection assay (CPE, ATPlite) in HEp-2 cells. The assay is classed as cell-based. Conditions: human respiratory syncytial virus, 96 h; HEp-2 cells, 4-day incubation, ATPlite readout; read-out: Human RSV-A (“Long” strain) EC50. The text has this:
RSV is a single stranded negative sense RNA virus that causes respiratory tract infections which can be dangerous to infants, the elderly, and immunosuppressed individuals. Currently there is no vaccine, and therapeutic options are both costly and of limited effectiveness. These approved treatments are Ribavirin, and Palivizumab/Synagis (a monoclonal antibody). RSV has two genotypes, A and B, which differ primarily in the structure of the virus' surface “G” attachment protein. Our current primary screen focuses on RSV-A and uses an in vitro cytoprotection assay where compounds are added in 2-fold dilutions to cells which are then subjected to fully replicative viral particles. Cell viability is measured several days later along with separate measurements of compound cytotoxicity. This report focuses on the results of our most recent screening of compounds.
HEp-2 cells, (originally derived from tumors grown in irradiated-cortisonised weanling rats that had been injected with epidermoid carcinoma tissue from a person's larynx, but later found to be indistinguishable from HeLa cells by PCR DNA analysis), were used for the culturing of genotype A, “Long” strain RSV. Flasks were inoculated with RSV and viral stocks were collected once cytopathic effect (CPE) was greater than 90%. Viral stocks in 25% sucrose media were snap frozen using liquid nitrogen to increase viral stability. Viral stock titers were quantified by tissue culture infectious dose 50% (TCID50) using 8,000 cells per well and 3-fold viral dilutions across a 96-well plate, cultured for 4 days.
Following extensive parameter testing, the final assay is run as follows: HEp-2 cells are seeded into the inner 60 wells of a 96-well plate at 8,000 cells per well in a volume of 50 μL using Growth Media (DMEM without phenol red, 1% L-Glut, 1% Penn/Strep, 1% nonessential amino acids, 10% FBS). 2-Fold serial dilutions of control and test compounds are added to the wells in duplicate in a total volume of 25 μL. Viral stock is then added to the wells in a volume of […] the total volume of each well to 100 μL. Each 96-well plate has a control column of 6 wells with cells and virus but no compound (negative control, max CPE), a column with cells but no compound or virus (positive control, minimum CPE), and a column with no cells or virus or compound (background plate/reagent control). The control wells with cells but no virus are given an additional 25 uL of growth media containing an equal quantity of sucrose as those wells receiving the viral stock in order to keep consistent in media and volume conditions. The outer wells of the plate are filled with 125 μL of growth media to act as a thermal and evaporative moat around the test wells. Following a 4-day incubation period, the plates are read using ATPlite (50 uL added per well), which quantifies the amount of ATP (a measure of cell health) present in each well. Assay plates are read using the Envision luminometer. In parallel, cytotoxicity is examined on an additional 96-well plate treated in an identical manner, but substituting the 25 μL of viral stock for 25 μL of growth media. […] EC50 ranges are as follows: A<0.01 μM; B 0.01-0.05 μM; C>0.05 μM.
A general note: In ATP-based viability assays light output follows the ATP content of the culture.
The term EC50 denotes the concentration giving half of the maximal effect. `O=C(Nc1c(F)cc(F)cc1Cl)c1cc2c(s1)-c1ccc(F)cc1N(C(=O)c1ccc(NC(=O)c3cc(C(F)F)cnc3N3CC4(CCOCC4)C3)cc1)CC2` [Example 144]: the EC50 was in the range of 10 to 50 nM. The same measure, in the same setting: then `Cc1cnc(N2CC3(CCOCC3)C2)c(C(=O)Nc2ccc(C(=O)N3CCc4cc(C(=O)Nc5c(F)cc(F)cc5F)sc4-c4ccc(F)cc43)cc2)c1` [Example 13], with less than 10 nM. Consider `Cc1cnc(N2CC3(CCOCC3)C2)c(C(=O)Nc2ccc(C(=O)N3CCc4c(sc(-c5nnco5)c4F)-c4ccc(F)cc43)cc2)c1` [Example 143], for which the EC50 was less than 10 nM.

For `Cc1cnc(N2CC3(CCOCC3)C2)c(C(=O)Nc2ccc(C(=O)N3CCc4cc(-c5ncc(C)s5)sc4-c4ccc(F)cc43)cc2)c1` [Example 151], the EC50 was less than 10 nM. With `Cc1cnc(N2CC3(CCOCC3)C2)c(C(=O)Nc2ccc(C(=O)N3CCc4cc(C(=O)Nc5nccs5)sc4-c4ccc(F)cc43)cc2)c1` [Example 132], the concentration for a half-maximal effect (EC50) is less than 10 nM. On to `O=C(Nc1c(F)cccc1F)c1cc2c(s1)-c1ccc(F)cc1N(C(=O)c1ccc(NC(=O)c3cc4c(nc3N3CC5(CCOCC5)C3)CCC4)cc1)CC2` [Example 65], for which the EC50 was less than 10 nM. As to `Cc1cnc(N2CC3(CCOCC3)C2)c(C(=O)Nc2ccc(C(=O)N3CCc4cc(NS(=O)(=O)c5c(F)cccc5F)sc4-c4ccccc43)cc2)c1` [Example 288], the EC50 was greater than 50 nM. Turning to `Cc1ccc(C(=O)Nc2ccc(C(=O)N3CCc4cc(NC(=O)OC5CCCCC5)sc4-c4ccccc43)cc2)c(N2CC3(CCOCC3)C2)n1` [Example 300], the EC50 is greater than 50 nM. As to `O=C(Nc1ccc(C(=O)N2CCc3c(sc(C(=O)Nc4c(F)cccc4F)c3F)-c3ccccc32)cc1)c1cccnc1N1CC2(CCOCC2)C1` [Example 88], the concentration giving a half-maximal response (EC50) is less than 10 nM. For the molecule `Cc1cnc(N2CC3(CCOCC3)C2)c(C(=O)Nc2ccc(C(=O)N3CCc4cc(C(=O)Nc5cccnn5)sc4-c4ccc(F)cc43)cc2)c1` [Example 126], the EC50 is less than 10 nM. Same read-out and setting: for `O=C(Nc1c(F)cccc1F)c1cc2c(s1)-c1ccc(F)cc1N(C(=O)c1ccc(NC(=O)c3cccnc3N3CC4CCCC4C3)cc1)CC2` (stereo not drawn) [Example 47] the value was 10 to 50 nM; for `Cc1cnc(N2CC3(CCOCC3)C2)c(C(=O)Nc2ccc(C(=O)N3CCc4cc(-c5cccnc5)sc4-c4ccc(F)cc43)cc2)c1` [Example 167], less than 10 nM; for `Cc1cc(C(=O)Nc2ccc(C(=O)N3CCc4cc(C(=O)Nc5c(F)cc(F)cc5Cl)sc4-c4ccc(F)cc43)cc2)c(N2CC3(CCOCC3)C2)nn1` [Example 136], 10 to 50 nM. Consider `Cc1cnc(N2CC3(CCOCC3)C2)c(C(=O)Nc2ccc(C(=O)N3CCc4cc(-c5cc[nH]c(=O)c5)sc4-c4ccc(F)cc43)cc2)c1` [Example 183], for which the EC50 was less than 10 nM. Take `Cc1cnc(N2CC3(CCOCC3)C2)c(C(=O)Nc2ccc(C(=O)N3CCc4cc(C(=O)NC5CCOCC5)sc4-c4ccc(F)cc43)cc2)c1` [Example 130]: the EC50 is less than 10 nM. In the case of `Cc1cnc(N2CC3(CCOCC3)C2)c(C(=O)Nc2ccc(C(=O)N3CCc4c(sc(C(=O)Nc5cccc(C)n5)c4F)-c4ccccc43)cc2)c1` [Example 229], the EC50 fell in the range of 10 to 50 nM. Turning to `O=C(Nc1ccc(C(=O)N2CCc3cc(-c4nc5ccc(F)cc5[nH]4)sc3-c3ccc(F)cc32)cc1)c1cccnc1N1CC2(CCOCC2)C1` [Example 39], the EC50 lay within 10 to 50 nM. With `Cc1cnc(N2CC3(CCOCC3)C2)c(C(=O)Nc2ccc(C(=O)N3CCc4cc(C(=O)NC5CC(C)(C)OC(C)(C)C5)sc4-c4ccc(F)cc43)cc2)c1` [Example 121], the concentration giving a half-maximal response (EC50) was less than 10 nM. For `Cc1cc(CNc2ncccc2C(=O)Nc2ccc(C(=O)N3CCc4cc(C(=O)Nc5c(F)cccc5F)sc4-c4ccc(F)cc43)cc2)on1` [Example 56], the concentration giving a half-maximal response (EC50) was greater than 50 nM. For the molecule `Cc1cnc(N2CC3(CCOCC3)C2)c(C(=O)Nc2ccc(C(=O)N3CCc4cc(-c5c[nH]c6cccnc56)sc4-c4ccc(F)cc43)cc2)c1` [Example 180], the EC50 lay within 10 to 50 nM.

Consider `O=C(Nc1c(F)cccc1F)c1cc2c(s1)CCN(C(=O)c1ccc(NC(=O)c3cc4c(nc3N3CC5(CCOCC5)C3)CCC4)cc1)c1ccccc1-2` [Example 263], for which the EC50 was in the range of 10 to 50 nM.

Regarding `Cc1cnc(N2CC3(CCOCC3)C2)c(C(=O)Nc2ccc(C(=O)N3CCc4cc(NC(=O)c5ncccc5F)sc4-c4ccccc43)cc2)c1` [Example 283], the EC50 is less than 10 nM. Same read-out and setting: then `Cc1cnc(N2CC3(CCOCC3)C2)c(C(=O)Nc2ccc(C(=O)N3CCc4cc(C(=O)Nc5ncccc5C(F)(F)F)sc4-c4ccc(F)cc43)cc2)c1` [Example 119], with less than 10 nM; and `Cc1cnc(N2CC3(CCOCC3)C2)c(C(=O)Nc2ccc(C(=O)N3CCc4cc(-c5nnco5)sc4-c4ccc(F)cc43)cc2)c1` [Example 141], with less than 10 nM. Take `Cc1cnc(N2CC3(CCOCC3)C2)c(C(=O)Nc2ccc(C(=O)N3CCc4c(sc(C(=O)Nc5ncc(F)s5)c4F)-c4ccccc43)cc2)c1` [Example 224]: the EC50 was 10 to 50 nM. Regarding `Cc1cnc(N2CC3(CCOCC3)C2)c(C(=O)Nc2ccc(C(=O)N3CCc4cc(C(=O)Nc5c(F)cccc5Cl)oc4-c4ccc(F)cc43)cc2)c1` [Example 237], the EC50 is less than 10 nM. Take `Cc1cnc(N2CC3(CCOCC3)C2)c(C(=O)Nc2ccc(C(=O)N3CCc4cc(-c5c[nH]c6ncccc56)sc4-c4ccc(F)cc43)cc2)c1` [Example 173]: the EC50 is less than 10 nM. Consider `O=C(Nc1ccc(C(=O)N2CCc3cc(-c4nc5ccccc5[nH]4)sc3-c3ccc(C(F)(F)F)cc32)cc1)c1cccnc1N1CC2(CCOCC2)C1` [Example 86], for which the EC50 was greater than 50 nM. Take `O=C(Nc1c(F)cccc1Cl)c1cc2c(s1)-c1ccc(F)cc1N(C(=O)c1ccc(NC(=O)c3cc4c(nc3N3CC5(CCOCC5)C3)CCOC4)cc1)CC2` [Example 137]: the EC50 is less than 10 nM. Regarding `Cc1cc(C(=O)Nc2ccc(C(=O)N3CCc4c(sc(C(=O)Nc5ncccc5F)c4F)-c4ccccc43)cc2)c(N2CC3(CCOCC3)C2)nc1C` [Example 221], the EC50 is less than 10 nM.

Turning to `Cc1cnc(N2CC3(CCOCC3)C2)c(C(=O)Nc2ccc(C(=O)N3CCc4cc(-c5ncccn5)sc4-c4ccc(F)cc43)cc2)c1` [Example 191], the EC50 was in the range of 10 to 50 nM. Turning to `Cc1cnc(N2CC3(CCOCC3)C2)c(C(=O)Nc2ccc(C(=O)N3CCc4cc(C(=O)N[C@H]5CCOC5)sc4-c4ccc(F)cc43)cc2)c1` [Example 124], the EC50 is less than 10 nM. On the same count and under the same terms, for `Cc1cnc(N2CC3(CCOCC3)C2)c(C(=O)Nc2ccc(C(=O)N3CCc4c(sc(C(=O)Nc5c(F)cc(F)cc5Cl)c4F)-c4ccccc43)cc2)c1` [Example 199] the value was less than 10 nM; for `Cc1cnc(N2CC3(CCOCC3)C2)c(C(=O)Nc2ccc(C(=O)N3CCc4cc(-c5ccn[nH]5)sc4-c4ccc(F)cc43)cc2)c1` [Example 46], 10 to 50 nM.

In the case of `Cc1cnc(N2CC3(CCOCC3)C2)c(C(=O)Nc2ccc(C(=O)N3CCc4cc(C(=O)NC5CC6CCC5O6)sc4-c4ccc(F)cc43)cc2)c1` (stereo not drawn) [Example 123], the EC50 was less than 10 nM. `O=C(Nc1c(F)cccc1F)c1cc2c(s1)-c1c(cc(F)c(F)c1F)N(C(=O)c1ccc(NC(=O)c3cccnc3N3CC4(CCOCC4)C3)cc1)CC2` [Example 78]: the concentration giving a half-maximal response (EC50) is less than 10 nM. For `O=C(Nc1c(F)cc(F)cc1F)c1cc2c(s1)-c1ccc(F)cc1N(C(=O)c1ccc(NC(=O)c3cccnc3N3CC4(CCOCC4)C3)cc1)CC2` [Example 22], the EC50 is less than 10 nM.

As for `Cc1ccc(C(=O)Nc2ccc(C(=O)N3CCc4c(sc(NC(=O)c5c(F)cccc5Cl)c4F)-c4ccccc43)cc2)c(N2CC3(CCOCC3)C2)n1` [Example 309], the EC50 fell in the range of 10 to 50 nM. As to `Cc1ccc(C(=O)Nc2ccc(C(=O)N3CCc4cc(C(=O)Nc5c(F)cccc5F)sc4-c4ccc(F)cc43)cc2)c(N2CC3(CCOCC3)C2)n1` [Example 110], the EC50 was less than 10 nM. For the molecule `Cc1cnc(N2CC3(CCOCC3)C2)c(C(=O)Nc2ccc(C(=O)N3CCc4cc(C(=O)Nc5c(Cl)cccc5Cl)sc4-c4ccc(F)cc43)cc2)c1` [Example 9], the EC50 was less than 10 nM. In the case of `Cc1cnc(N2CC3(CCOCC3)C2)c(C(=O)Nc2ccc(C(=O)N3CCc4cc(NC(=O)c5c(F)cccc5C(F)(F)F)sc4-c4ccccc43)cc2)c1` [Example 287], the EC50 lay within 10 to 50 nM.

Still in this assay, the particulars now being: human respiratory syncytial virus, HEp-2; control compound of the RSV assay; read-out: EC50.
Take `O=C(Nc1ccccc1F)N[C@H]1N=C(c2ccccc2)c2ccccc2NC1=O` [RSV-604, reference compound]: the EC50 is roughly 2400 nM.

The record behind these values is patent publication US11091501B2, “Heterocyclic compounds as RSV inhibitors” (Enanta Pharmaceuticals, Inc., priority 2017, dated 2021).
